{
  "source": "patent US9789200B2",
  "about": "“Therapeutic use of new pharmaceutical preparations containing antitumoral drugs bound to hyaluronic acid in the treatment of neoplasias” (FIDIA FARMACEUTICI S.P.A., priority 2008, dated 2017)",
  "key": {"[1]": {"system": "DHD/K12/Trb peritoneal carcinomatosis", "assay": "anti-tumoral effect in vivo, peritoneal carcinomatosis and tumoral ascites induced by DHD/K12/Trb in BDIX rats", "design": "species or system rat", "settings": "40 mg/kg intraperitoneally", "method": "Animals treated: 36 male rats BDIX 7 weeks' old (about 200 g) were divided according to experimental criteria into the following groups (each group consists of 12 animals):\n1. Control Group: inoculum DHD/K12/trb.\n2. CPT-11 Group: inoculum DHD/K12/trb+treatment CTP-11 40 mg/Kg intraperitoneally.\nAfter 14 days of stabling, 1×10^6 DHD/K12/trb cells per rat were inoculated intraperitoneally. After 7 days the therapeutic treatment envisaged was initiated, consisting of 4 therapy cycles. The sacrifice of the animals was established 7 days after the last pharmacological treatment. The animals were evaluated once a week for the appearance of possible signs of toxicity, by measuring the body weight, and for the possible appearance of ascites. At the moment of sacrifice an intracardiac sampling was effected in all the animals and the haematological toxicity due to the pharmacological treatment was evaluated. The tumours and ascites were removed and measured. The tissues removed were fixed in formalin for histological and immunohistochemical evaluation."}, "[2]": {"system": "Adenocarcinoma cells of the colon of a rat DHD/K12/Trb", "assay": "cell vitality, Tripan blue exclusion method", "assay_type": "cell-based", "settings": "24 h of treatment, ONCOFID-S derivatized at 3.5% w/w (Example 2)", "from_the_text": "Adenocarcinoma cells of the colon of a rat DHD/K12/Trb expressing the receptor for HA CD44\nAdenocarcinoma cells of the colon of a rat DHD/K12/Trb."}, "DHD/Trb cells": {"system": "DHD/Trb cells", "assay": "fluorescence microscopy of intracellular distribution/expression of E-cadherin, β-catenin, APC, GSK-3β and CK20", "assay_type": "cell-based, rat", "settings": "non-conjugated SN38", "from_the_text": "Due to the importance of the role of regulating the β-catenin in the formation and progression of colon-rectal carcinomas, it was verified whether the treatment with Oncofid-S is capable of modifying the intracellular expression and distribution of the molecules involved in the control process of the above protein, as previously described. The effect of the treatment with ONCOFID-S on the intracellular distribution of E-cadherin, β-catenin, APC e GSK-3β in the DHD/Trb cells was therefore analyzed by means of fluorescence microscopy. Specific antibodies were used for the above proteins, visualizing them with the use of secondary antibodies bound to fluorochromes such as rodamin and fluoroescein."}, "[3]": {"system": "Adenocarcinoma cells of the colon of a rat DHD/K12/Trb", "assay": "cytofluorometric analysis of cell phases (DNA content, propidium iodide) and wash out test", "assay_type": "cell-based", "settings": "0.5 μg/ml, 24 h of treatment; ONCOFID-S 3.5% w/w", "experimental": "Adenocarcinoma cells of the colon of a rat DHD/K12/Trb\nAs described for examples 8 and 9.\nThe effect of the ONCOFID-S conjugate (at a concentration of 0.5 μg/ml) was determined using an analysis of the cytofluorometric type; after 24 h of pharmacological treatment, the cell phases are identified with FACS-Scan (Becton Dickinson) by cytofluorometric, analysis of the DNA content after colouring the cells with propidium iodide.\nIn order to evaluate whether the data obtained persist with time, the Wash out test was effected in which, after 48 h of treatment, the culture medium is substituted with fresh medium without treatment: the cell phases were then defined again at the point defined as TO and, after 24 h of culture, T24."}},
  "data": [
    {"smiles": "CCc1c2c(nc3ccc(OC(=O)N4CCC(N5CCCCC5)CC4)cc13)-c1cc3c(c(=O)n1C2)COC(=O)[C@]3(O)CC", "note": "[CPT-11, Irinotecan]", "values": [
      {"measurement": "animals with bloody ascites", "setting": "[1]", "result": 83, "unit": "%"},
      {"measurement": "average reduction in the tumoral mass", "setting": "[1]; vs control", "result": 62, "unit": "%"}
    ]},
    {"smiles": "CCc1c2c(nc3ccc(O)cc13)-c1cc3c(c(=O)n1C2)COC(=O)[C@]3(O)CC", "note": "[SN38]", "values": [
      {"measurement": "IC50", "setting": "[2]", "result": 1.4, "unit": "µg/mL"},
      {"measurement": "modifications relating to cell differentiation (APC/GSK-3β, β-catenin, E-cadherin, CK20)", "setting": "DHD/Trb cells", "result": "not revealed"},
      {"measurement": "gap1 and S phases of the cell cycle", "setting": "[3]", "result": "increases both the first phase and the S phase"}
    ]}
  ]
}
